Measured values taken from patent publication US20030022158A1, “Peptides from the TT virus sequence and monospecific antibodies binding to the TT virus” (priority 1999, published 2003).

How the values were obtained:
[1] = test system: human IgG antibodies in human serum samples; experiment: EIA of human antibody reactivities to overlapping synthetic peptides of TTV ORF1 and ORF2 (Tables 2 and 3); type: binding; conditions: for reactivity with serum samples from patients with TTV infection: eight samples with TTV infection; for reactivity with serum samples from patients with TTV infection / human reactivity to peptide (reactive peptides within ORF1): EIA; for optical density (OD) at 405 nm: serum diluted 1:100, OD over 0.500 considered positive; for human reactivity to peptide (reactive peptides within ORF1): tested human sera
Method in brief: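 Human serum diluted 1:100 was tested for IgG binding to 18-residue overlapping TTV peptides coated at 10 μg/ml (pH 9.6 carbonate, 48 h). Blocking buffer held BSA, goat serum and Tween 20. Alkaline phosphatase anti-human IgG gave a signal measured as OD at 405 nm.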

[2] = test system: human antibodies in human serum samples P4, P6, P7; experiment: EIA reactivities of serial dilutions of three human serum samples with TTV peptide SEQ ID NO: 1 (Table 5); type: binding
Method: The EIAs used to identify which peptides interacted with human sera followed protocols known in the art. (See Zhang et al., J Gen Virol, 78:2735-2746 (1997), herein expressly incorporated by reference in its entirety). Briefly, microplates (Nunc, Denmark) were coated for 48 hours with synthetic peptides at a concentration of 10 μg/ml in 0.05M sodium carbonate buffer pH 9.6. […] Bound human IgG was detected by incubation with anti-human IgG antibodies conjugated to alkaline phosphatase (Sigma Chemicals, St. Louis, Mo.). The plates were developed by the addition of […] (Sigma) and the optical densities were determined at 405 nm.

[3] = test system: human antibodies in human serum samples; experiment: EIA reactivities of three human serum samples with deletion and alanine substitution analogues of SEQ ID NO: 1 (Table 6); type: binding; conditions: positive = more than 50% of the reactivity of the original peptide
Method in brief: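 Plates coated 48 hours with synthetic peptides at 10 μg/ml in carbonate buffer pH 9.6, blocked, then incubated with human sera diluted 1:100. Bound human IgG detected with alkaline phosphatase anti-human IgG; OD read at 405 nm, mapping deletion and alanine-substitution analogues of SEQ ID NO: 1.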

[4] = test system: anti-TTV antibodies present in human serum; experiment: Inhibition of serum reactivity to plate-bound peptide by peptide in solution; type: binding; conditions: peptide SEQ ID NO: 1 on the microplate
Balb/c mice = experiment: Immunization of Balb/c mice with TTV peptide 35, anti-peptide antibody titers; type: in vivo, mouse; conditions: five Balb/c mice, 100 μg intra-peritoneally in complete Freund's adjuvant, booster week four
Method: A total of five Balb/c mice were immunized intra-peritoneally with 100 μg of TTV peptide 35 (SEQ ID NO: 1) emulsified 1:1 in complete Freund's adjuvant. Venous blood samples were obtained on weeks 2, 4, and 6. A booster dose of 100 μg in incomplete Freund's adjuvant was given on week four. […] The anti-peptide titers were 1:60 at week 4 and 1:2160 at week 6. […] The following section describes more on the production of antibodies specific for TTV.

[5] = human serum sample 1, negative for TTV DNA by PCR
[6] = human serum sample 2, negative for TTV DNA by PCR
[7] = human serum sample 3, negative for TTV DNA by PCR
[8] = human serum sample 4, negative for TTV DNA by PCR
[9] = human serum sample 5, negative for TTV DNA by PCR
[10] = human serum sample 6, negative for TTV DNA by PCR
[11] = human serum sample 7, negative for TTV DNA by PCR
[12] = human serum sample 9, positive for TTV DNA by PCR
[13] = human serum sample 11, negative for TTV DNA by PCR
[14] = human serum sample 18, positive for TTV DNA by PCR
[15] = human serum sample 36, positive for TTV DNA by PCR
[16] = human serum sample 48, positive for TTV DNA by PCR
[17] = human serum sample 98, positive for TTV DNA by PCR
[18] = human serum sample 110, positive for TTV DNA by PCR
[19] = human serum sample 155, positive for TTV DNA by PCR
[20] = human serum sample 157, positive for TTV DNA by PCR

TATTTTYAYPGTNRPPV (Peptide Immunogen) [peptide 35, overlapping synthetic peptide of TTV ORF1]
reactivity with serum samples from patients with TTV infection [1]: reactive to most of the TTV infected serum samples
reactivity with serum samples from patients with TTV infection ([1]; listed as TATTTTYAYPGTNRPPV): Every sample from patients with TTV infection was found to be reactive
optical density (OD) at 405 nm [1, 5]: 0.18 OD
optical density (OD) at 405 nm [1, 6]: 0.17 OD
optical density (OD) at 405 nm [1, 7]: 0.27 OD
optical density (OD) at 405 nm [1, 8]: 1.40 OD
optical density (OD) at 405 nm [1, 9]: 0.25 OD
optical density (OD) at 405 nm [1, 10]: 0.64 OD
optical density (OD) at 405 nm [1, 11]: 2.10 OD
optical density (OD) at 405 nm [1, 12]: 0.10 OD
optical density (OD) at 405 nm [1, 13]: 0.64 OD
optical density (OD) at 405 nm [1, 14]: 0.10 OD
optical density (OD) at 405 nm [1, 15]: 1.22 OD
optical density (OD) at 405 nm [1, 16]: 1.11 OD
optical density (OD) at 405 nm [1, 17]: 0.05 OD
optical density (OD) at 405 nm [1, 18]: 0.47 OD
optical density (OD) at 405 nm [1, 19]: 0.95 OD
optical density (OD) at 405 nm [1, 20]: 0.86 OD
human reactivity to peptide (reactive peptides within ORF1) [1]: Reactive
OD at 405 nm ([2]; human serum sample P4, dilution of serum sample 1:100): 1.285 OD
OD at 405 nm ([2]; human serum sample P4, dilution of serum sample 1:200): 0.758 OD
OD at 405 nm ([2]; human serum sample P4, dilution of serum sample 1:400): 0.411 OD
OD at 405 nm ([2]; human serum sample P4, dilution of serum sample 1:800): 0.234 OD
OD at 405 nm ([2]; human serum sample P4, dilution of serum sample 1:1600): 0.131 OD
OD at 405 nm ([2]; human serum sample P4, dilution of serum sample 1:3200): 0.076 OD
OD at 405 nm ([2]; human serum sample P4, dilution of serum sample 1:6400): 0.058 OD
OD at 405 nm ([2]; human serum sample P4, dilution of serum sample 1:12800): 0.046 OD
OD at 405 nm ([2]; human serum sample P6, dilution of serum sample 1:100): 0.687 OD
OD at 405 nm ([2]; human serum sample P6, dilution of serum sample 1:200): 0.375 OD
OD at 405 nm ([2]; human serum sample P6, dilution of serum sample 1:400): 0.19 OD
OD at 405 nm ([2]; human serum sample P6, dilution of serum sample 1:800): 0.104 OD
OD at 405 nm ([2]; human serum sample P6, dilution of serum sample 1:1600): 0.067 OD
OD at 405 nm ([2]; human serum sample P6, dilution of serum sample 1:3200): 0.049 OD
OD at 405 nm ([2]; human serum sample P6, dilution of serum sample 1:6400): 0.043 OD
OD at 405 nm ([2]; human serum sample P6, dilution of serum sample 1:12800): 0.041 OD
OD at 405 nm ([2]; human serum sample P7, dilution of serum sample 1:100): 1.782 OD
OD at 405 nm ([2]; human serum sample P7, dilution of serum sample 1:200): 1.23 OD
OD at 405 nm ([2]; human serum sample P7, dilution of serum sample 1:400): 0.79 OD
OD at 405 nm ([2]; human serum sample P7, dilution of serum sample 1:800): 0.45 OD
OD at 405 nm ([2]; human serum sample P7, dilution of serum sample 1:1600): 0.246 OD
OD at 405 nm ([2]; human serum sample P7, dilution of serum sample 1:3200): 0.131 OD
OD at 405 nm ([2]; human serum sample P7, dilution of serum sample 1:6400): 0.087 OD
OD at 405 nm ([2]; human serum sample P7, dilution of serum sample 1:12800): 0.061 OD
dependence of reactivity on serum dilution ([2]; serial dilutions of serum samples): dependent on the dilution of the serum samples
OD at 405 nm, reactivity of human serum sample P4 [3]: 0.748 OD
OD at 405 nm, reactivity of human serum sample P7 [3]: 1.659 OD
OD at 405 nm, reactivity of human serum sample P36 [3]: 0.722 OD
inhibition of serum reactivity to the peptide on the microplate by peptide in solution [4]: inhibited
mice developing detectable peptide-specific antibodies (Balb/c mice): one developed detectable antibodies

LIRSPFTDPQLLVHTDP (Peptide Immunogen) [compound 51, overlapping synthetic peptide of TTV ORF1]
optical density (OD) at 405 nm [1, 5]: 0.06 OD
optical density (OD) at 405 nm [1, 6]: 0.09 OD
optical density (OD) at 405 nm [1, 7]: 0.08 OD
optical density (OD) at 405 nm [1, 8]: 0.10 OD
optical density (OD) at 405 nm [1, 9]: 0.12 OD
optical density (OD) at 405 nm [1, 10]: 0.24 OD
optical density (OD) at 405 nm [1, 11]: 0.13 OD
optical density (OD) at 405 nm [1, 12]: 0.07 OD
optical density (OD) at 405 nm [1, 13]: 0.13 OD
optical density (OD) at 405 nm [1, 14]: 0.07 OD
optical density (OD) at 405 nm [1, 15]: 0.08 OD
optical density (OD) at 405 nm [1, 16]: 0.08 OD
optical density (OD) at 405 nm [1, 17]: 0.11 OD
optical density (OD) at 405 nm [1, 18]: 0.09 OD
optical density (OD) at 405 nm [1, 19]: 0.24 OD
optical density (OD) at 405 nm [1, 20]: 0.78 OD
human reactivity to peptide (reactive peptides within ORF1) [1]: Reactive
OD at 405 nm, reactivity of human serum sample P4 [3]: 0.899 OD
OD at 405 nm, reactivity of human serum sample P7 [3]: 1.697 OD
OD at 405 nm, reactivity of human serum sample P36 [3]: 0.903 OD

YTDIKYNPFTDRGEGNM (Peptide Immunogen) [compound 44, overlapping synthetic peptide of TTV ORF1]
optical density (OD) at 405 nm [1, 5]: 0.09 OD
optical density (OD) at 405 nm [1, 6]: 0.11 OD
optical density (OD) at 405 nm [1, 7]: 0.11 OD
optical density (OD) at 405 nm [1, 8]: 0.12 OD
optical density (OD) at 405 nm [1, 9]: 0.98 OD
optical density (OD) at 405 nm [1, 10]: 0.15 OD
optical density (OD) at 405 nm [1, 11]: 0.10 OD
optical density (OD) at 405 nm [1, 12]: 0.09 OD
optical density (OD) at 405 nm [1, 13]: 0.14 OD
optical density (OD) at 405 nm [1, 14]: 0.09 OD
optical density (OD) at 405 nm [1, 15]: 0.08 OD
optical density (OD) at 405 nm [1, 16]: 0.08 OD
optical density (OD) at 405 nm [1, 17]: 0.12 OD
optical density (OD) at 405 nm [1, 18]: 0.13 OD
optical density (OD) at 405 nm [1, 19]: 0.17 OD
optical density (OD) at 405 nm [1, 20]: 1.25 OD
human reactivity to peptide (reactive peptides within ORF1) [1]: Reactive
OD at 405 nm, reactivity of human serum sample P4 [3]: 0.855 OD
OD at 405 nm, reactivity of human serum sample P7 [3]: 1.829 OD
OD at 405 nm, reactivity of human serum sample P36 [3]: 0.806 OD

DQNIHMNARLLIRSPFT (Peptide Immunogen) [compound 50, overlapping synthetic peptide of TTV ORF1]
optical density (OD) at 405 nm [1, 5]: 0.07 OD
optical density (OD) at 405 nm [1, 6]: 0.09 OD
optical density (OD) at 405 nm [1, 7]: 0.08 OD
optical density (OD) at 405 nm [1, 8]: 0.09 OD
optical density (OD) at 405 nm [1, 9]: 0.08 OD
optical density (OD) at 405 nm [1, 10]: 0.86 OD
optical density (OD) at 405 nm [1, 11]: 0.29 OD
optical density (OD) at 405 nm [1, 12]: 0.08 OD
optical density (OD) at 405 nm [1, 13]: 0.18 OD
optical density (OD) at 405 nm [1, 14]: 0.07 OD
optical density (OD) at 405 nm [1, 15]: 0.07 OD
optical density (OD) at 405 nm [1, 16]: 0.07 OD
optical density (OD) at 405 nm [1, 17]: 0.10 OD
optical density (OD) at 405 nm [1, 18]: 0.20 OD
optical density (OD) at 405 nm [1, 19]: 0.63 OD
optical density (OD) at 405 nm [1, 20]: 0.46 OD
human reactivity to peptide (reactive peptides within ORF1) [1]: Reactive
OD at 405 nm, reactivity of human serum sample P4 [3]: 0.836 OD
OD at 405 nm, reactivity of human serum sample P7 [3]: 1.769 OD
OD at 405 nm, reactivity of human serum sample P36 [3]: 0.850 OD
